“Also recorded” adds a separate entry of the source.
Assays:
Na/K ATPase = Na/K ATPase assay (86Rb uptake into red blood cells);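 as to all read-outs here: washed human red blood cells in K-free Ringer, test agent preincubated 20 min, then 86Rb uptake over 4 h at 37 °C counted as CPM per tube versus water control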; details: for Na/K ATPase activity in erythrocytes: 6-thio inosine and 6-thio guanosine both 1 mM (FIG. 17); for Na/K ATPase stimulatory activity of adenosine analogs and metabolites: 1 mM (FIG. 4); for effect of equilibrative nucleoside transport inhibitor on purine stimulation of Na/K ATPase: dipyridamole 1 mM, NBTI 10 μM, purine 1 mM (FIGS. 12 and 13); for effect of phosphate analogs and bases on Na/K ATPase: FIG. 10; for relative effectiveness at stimulating Na/K ATPase: 10^-3 Molar (FIG. 8); for stimulation of Na/K ATPase: human red blood cells, dose response (FIG. 3b, FIG. 8); for stimulation of Na/K ATPase in the presence of ouabain: partial inhibition / sub maximal doses of ouabain (FIG. 9); for effect of adenosine-receptor blocker on stimulation of Na/K ATPase by inosine, adenosine, guanosine, deoxyadenosine or deoxyguanosine: FIG. 11; for effect of adenosine-receptor blocker on adenosine stimulation of Na/K ATPase: equimolar doses added together with adenosine (FIG. 5); for effect of pyrimidines on Na/K ATPase: doses ranging from 10^-3 to 10^-10 M; for effect of hormones on Na/K ATPase activity: doses of 10^-3 to 10^-9 M
Procedure: Human red blood cells of any group-type were donated for research by the Blood Bank of the University Of Maryland, School of Medicine. Five ml of red cells are washed 3 times in 40 ml of Potassium free Ringers solution (141 mM NaCl, 1 mM H2NaPO4, 0.5 mM CaCl2, 1 mM MgSO4, 4.5 mM glucose, 10 mM HEPES pH7.4). 50 μl of washed red cells are added to 220 μl of potassium free Ringers solution. 30, 10, 3 or 1 μl of ultra-filtrate, HPLC (high performance liquid chromatography) fraction, or adenosine, inosine, guanosine, deoxyadenosine, deoxyguanosine, caffeine, aminophylline, dipyridamole, NBTI, 6thioinosine, 6thioguanosine, or EHNA (all in buffer) is added to the mixture and incubated for 20 min. 4 μCi of 86RbCl is added and incubated for 4 hrs at 37° C. The mixture is than washed three times with 4° C. Potassium free Ringers solution and the cells counted in a gamma counter (Packard, Cobra II). Na/K ATPase activity is expressed as the CPM (counts per minute) (CPM/tube*4 hrs). The effects of ultra-filtrate or HPLC fractions on ^86Rb uptake into red cells are compared to equal volumes of either water (control) or, in some cases, 0.01 mM Ouabain (maximal inhibition).

[1] = system: rats in severe hemorrhagic shock; test: Rat shock model for adenosine experiments (0.5 mM adenosine resuscitation); type: in vivo
Procedure: It was hypothesized that stimulation of Na/K ATPase with adenosine may reverse, alleviate or attenuate the effects of an endogenous inhibitor that appears during hemorrhagic shock. […] Blood samples (0.5 ml) were taken before hemorrhage, before resuscitation and 1 hr after resuscitation for measurement of plasma K and Na.
All animal procedures are conducted with the authorization of the Institutional Animal Care and Use Committee at the University of Maryland, School of Medicine. […] Blood samples (0.5 ml) were taken before hemorrhage, before resuscitation and 1 hr after resuscitation for measurement of plasma K and Na. Blood was centrifuged 3500 rpm for 2 min, plasma removed and K and Na was measured by flame photometer. Before and after resuscitation potassium (K) was analyzed by Newman Keul post hoc test after ANOVA.

[2] = system: rats in severe hemorrhagic shock; details: for effect on shock-elevated plasma K^+: 0.5 hr; for Plasma K^+ 0.5 hr after Resuscitation: mean ± SE, N = 7/group; for survival compared to saline and cytidine controls (Kaplan-Meier): single dose of 2.5 mM in saline, 8 rats/group, p<0.001
Procedure: Pentobarbital-anesthetized rats were subjected to severe hemorrhagic shock. Five groups of eight rats were resuscitated.
Plasma K^+ was measured from plasma taken before hemorrhage, before resuscitation and 0.5 hrs after resuscitation using a K^+ electrode (Jenco Electronics, Inc., San Diego, Calif.). Survival time between groups was compared by Kaplan-Meier survival Analysis.

CCCCCC[C@@H]([C@@H](C)O)n1cnc2c(N)ncnc21 (racemic) [EHNA, erythrohydroxy3-nonyl-adenine]
Na/K ATPase activity in erythrocytes (Na/K ATPase): stimulate Na/K ATPase

Nc1nc2c(ncn2[C@@H]2O[C@H](CO)[C@@H](O)[C@H]2O)c(=S)[nH]1 [6-thioguanosine]
Na/K ATPase activity in erythrocytes (Na/K ATPase): stimulate Na/K ATPase

OC[C@H]1O[C@@H](n2cnc3c(S)ncnc32)[C@H](O)[C@@H]1O [6-thioinosine]
Na/K ATPase activity in erythrocytes (Na/K ATPase): stimulate Na/K ATPase

Nc1ncnc2c1ncn2[C@@H]1O[C@H](COP(=O)(O)OP(=O)(O)O)[C@@H](O)[C@H]1O [ADP]
Na/K ATPase stimulatory activity of adenosine analogs and metabolites (Na/K ATPase): little or no Na/K ATPase stimulatory activity

Nc1ncnc2c1ncn2[C@@H]1O[C@H](COP(=O)(O)O)[C@@H](O)[C@H]1O [AMP]
Na/K ATPase stimulatory activity of adenosine analogs and metabolites (Na/K ATPase): little or no Na/K ATPase stimulatory activity

Nc1ncnc2c1ncn2[C@@H]1O[C@H](COP(=O)(O)OP(=O)(O)OP(=O)(O)O)[C@@H](O)[C@H]1O [ATP]
Na/K ATPase stimulatory activity of adenosine analogs and metabolites (Na/K ATPase): little or no Na/K ATPase stimulatory activity

O=[N+]([O-])c1ccc(CSc2ncnc3c2ncn3[C@@H]2O[C@H](CO)[C@@H](O)[C@H]2O)cc1 [NBTI, S-(4-nitrobenzyl)-6-thioinosine]
effect of equilibrative nucleoside transport inhibitor on purine stimulation of Na/K ATPase (Na/K ATPase): blocked stimulation of Na/K ATPase by any of the five purines tested

Nc1ncnc2nc[nH]c12 [adenine]
Na/K ATPase stimulatory activity of adenosine analogs and metabolites (Na/K ATPase): little or no Na/K ATPase stimulatory activity
effect of phosphate analogs and bases on Na/K ATPase (Na/K ATPase): None of the purine analogs significantly affected Na/K ATPase

Nc1ncnc2c1ncn2[C@@H]1O[C@H](CO)[C@@H](O)[C@H]1O [adenosine]
plasma K after resuscitation ([1]; 1 hr after resuscitation, 0.5 mM): recovery of plasma K to prehemorrhage levels by 1 hr
survival ([1]; at about 70 minutes after resuscitation, 0.5 mM): 100%
survival ([1]; at about 160 minutes, 0.5 mM): about 25%
survival ([1]; from 70 to 120 minutes, 0.5 mM): 85%
bradycardia ([1]; shocked rats, 0.5 mM infusion (about 3 to 4.5 mg/kg)): caused bradycardia
survival compared to saline alone (Kaplan-Meier) ([1]; single dose 0.5 mM in saline, infusion volume equal to blood lost, p<0.01): significantly prolonged survival
effect on shock-elevated plasma K^+ ([2]; 2.5 mM in saline): lowered the shock-elevated plasma K^+
Plasma K^+ 0.5 hr after Resuscitation ([2]; 2.5 mM in saline): 3.10 ± 0.20 mM
survival compared to saline and cytidine controls (Kaplan-Meier) [2]: survived significantly longer than saline or cytidine controls; also recorded: significantly increased survival; also recorded: survived significantly longer
relative effectiveness at stimulating Na/K ATPase (Na/K ATPase): more effective at stimulating Na/K ATPase than guanosine and inosine
stimulation of Na/K ATPase (Na/K ATPase): stimulated Na/K ATPase in a dose-dependent manner
stimulation of Na/K ATPase in the presence of ouabain (Na/K ATPase): this stimulation occurs even in the presence of ouabain

Cn1c(=O)c2[nH]cnc2n(C)c1=O [aminophylline]
effect of adenosine-receptor blocker on stimulation of Na/K ATPase by inosine, adenosine, guanosine, deoxyadenosine or deoxyguanosine (Na/K ATPase): Neither of these adenosine-receptor blockers had a significant effect on stimulation of Na/K ATPase
effect of adenosine-receptor blocker on adenosine stimulation of Na/K ATPase (Na/K ATPase): did not affect the ability of adenosine to stimulate Na/K ATPase

Cn1c(=O)c2c(ncn2C)n(C)c1=O [caffeine]
effect of adenosine-receptor blocker on stimulation of Na/K ATPase by inosine, adenosine, guanosine, deoxyadenosine or deoxyguanosine (Na/K ATPase): Neither of these adenosine-receptor blockers had a significant effect on stimulation of Na/K ATPase
effect of adenosine-receptor blocker on adenosine stimulation of Na/K ATPase (Na/K ATPase): did not affect the ability of adenosine to stimulate Na/K ATPase

Nc1ccn([C@@H]2O[C@H](CO)[C@@H](O)[C@H]2O)c(=O)n1 [cytidine, reference compound]
time to 100% mortality ([2]; 2.5 mM in saline): 50 min
time within which all resuscitated rats died ([2]; 2.5 mM in saline): ≤ 52 min
mean arterial blood pressure after resuscitation ([2]; 2.5 mM in saline (FIG. 15)): mean arterial blood pressure fell earlier
effect on shock-elevated plasma K^+ ([2]; 2.5 mM in saline): did not lower plasma K^+ concentration
Plasma K^+ 0.5 hr after Resuscitation ([2]; 2.5 mM in saline): 4.30 ± 0.35 mM
effect of pyrimidines on Na/K ATPase (Na/K ATPase): had no effect in the assay

Nc1ncnc2c1ncn2[C@H]1C[C@H](O)[C@@H](CO)O1 [deoxyadenosine]
relative effectiveness at stimulating Na/K ATPase (Na/K ATPase): less effective than guanosine and inosine, but more effective than deoxyguanosine
stimulation of Na/K ATPase (Na/K ATPase): stimulated Na/K ATPase in a dose-dependent manner
stimulation of Na/K ATPase in the presence of ouabain (Na/K ATPase): overcame partial inhibition by ouabain

Nc1ccn([C@H]2C[C@H](O)[C@@H](CO)O2)c(=O)n1 [deoxycytidine]
effect of pyrimidines on Na/K ATPase (Na/K ATPase): had no effect in the assay

Nc1nc2c(ncn2[C@H]2C[C@H](O)[C@@H](CO)O2)c(=O)[nH]1 [deoxyguanosine]
stimulation of Na/K ATPase (Na/K ATPase): stimulated Na/K ATPase in a dose-dependent manner
stimulation of Na/K ATPase in the presence of ouabain (Na/K ATPase): overcame partial inhibition by ouabain

OCCN(CCO)c1nc(N2CCCCC2)c2nc(N(CCO)CCO)nc(N3CCCCC3)c2n1 [dipyridamole]
effect of equilibrative nucleoside transport inhibitor on adenosine stimulation of Na/K ATPase (Na/K ATPase; dipyridamole 1 mM (FIG. 6)): blocked adenosine stimulation of Na/K ATPase
effect of equilibrative nucleoside transport inhibitor on purine stimulation of Na/K ATPase (Na/K ATPase): blocked stimulation of Na/K ATPase by any of the five purines tested

NCCc1ccc(O)c(O)c1 [dopamine]
effect of hormones on Na/K ATPase activity (Na/K ATPase): had no effect on Na/K ATPase activity

CNC[C@H](O)c1ccc(O)c(O)c1 [epinephrine]
effect of hormones on Na/K ATPase activity (Na/K ATPase): had no effect on Na/K ATPase activity

Nc1nc2nc[nH]c2c(=O)[nH]1 [guanine]
effect of phosphate analogs and bases on Na/K ATPase (Na/K ATPase): None of the purine analogs significantly affected Na/K ATPase

Nc1nc2c(ncn2[C@@H]2O[C@H](CO)[C@@H](O)[C@H]2O)c(=O)[nH]1 [guanosine]
bradycardia on resuscitation from hemorrhagic shock ([2]; 2.5 mM in saline): did not cause the bradycardia
time to 50% mortality ([2]; 2.5 mM in saline): sooner than with inosine
time to 100% mortality ([2]; 2.5 mM in saline): 200 min
effect on shock-elevated plasma K^+ ([2]; 2.5 mM in saline): lowered the shock-elevated plasma K^+
Plasma K^+ 0.5 hr after Resuscitation ([2]; 2.5 mM in saline): 3.01 ± 0.15 mM
adverse effects on resuscitation from hemorrhagic shock ([2]; rat, in vivo): without any adverse effects
survival compared to saline and cytidine controls (Kaplan-Meier) [2]: survived significantly longer than saline or cytidine controls; also recorded: significantly increased survival; also recorded: survived significantly longer
relative effectiveness at stimulating Na/K ATPase (Na/K ATPase): both equally effective
stimulation of Na/K ATPase (Na/K ATPase): stimulated Na/K ATPase in a dose-dependent manner
stimulation of Na/K ATPase in the presence of ouabain (Na/K ATPase): overcame partial inhibition by ouabain

O=c1[nH]cnc2nc[nH]c12 [hypoxanthine]
Na/K ATPase stimulatory activity of adenosine analogs and metabolites (Na/K ATPase): little or no Na/K ATPase stimulatory activity
effect of phosphate analogs and bases on Na/K ATPase (Na/K ATPase): None of the purine analogs significantly affected Na/K ATPase

NC[C@H](O)c1ccc(O)c(O)c1 [norepinephrine]
effect of hormones on Na/K ATPase activity (Na/K ATPase): had no effect on Na/K ATPase activity

C[C@@H]1O[C@@H](O[C@H]2C[C@@H](O)[C@]3(CO)[C@H]4[C@H](O)C[C@]5(C)[C@@H](C6=CC(=O)OC6)CC[C@]5(O)[C@@H]4CC[C@]3(O)C2)[C@H](O)[C@H](O)[C@H]1O [ouabain]
inhibition of Na/K ATPase stimulation by the rat plasma ultra-filtrate (Na/K ATPase; FIG. 3a): inhibited in a dose-dependent manner
inhibition of Na/K ATPase stimulation by adenosine (Na/K ATPase; FIG. 3c): inhibited in a dose dependent manner
inhibition of Na/K ATPase stimulation by inosine, guanosine, deoxyadenosine and deoxyguanosine (Na/K ATPase; maximal doses of ouabain (FIG. 9)): inhibited by maximal doses of ouabain

Cc1cn([C@H]2C[C@H](O)[C@@H](CO)O2)c(=O)[nH]c1=O [thymidine]
effect of pyrimidines on Na/K ATPase (Na/K ATPase): had no effect in the assay

N[C@@H](Cc1cc(I)c(Oc2cc(I)c(O)c(I)c2)c(I)c1)C(=O)O [thyroxine]
effect of hormones on Na/K ATPase activity (Na/K ATPase): had no effect on Na/K ATPase activity

O=c1[nH]c(=O)c2[nH]c(=O)[nH]c2[nH]1 [uric acid]
Na/K ATPase stimulatory activity of adenosine analogs and metabolites (Na/K ATPase): little or no Na/K ATPase stimulatory activity

O=c1ccn([C@@H]2O[C@H](CO)[C@@H](O)[C@H]2O)c(=O)[nH]1 [uridine]
effect of pyrimidines on Na/K ATPase (Na/K ATPase): had no effect in the assay

NC(=O)CC[C@@H]1NC(=O)[C@H](Cc2ccccc2)NC(=O)[C@H](Cc2ccc(O)cc2)NC(=O)[C@@H](N)CSSC[C@@H](C(=O)N2CCC[C@H]2C(=O)N[C@@H](CCCN=C(N)N)C(=O)NCC(N)=O)NC(=O)[C@H](CC(N)=O)NC1=O [vasopressin]
effect of hormones on Na/K ATPase activity (Na/K ATPase): had no effect on Na/K ATPase activity

O=c1[nH]c(=O)c2[nH]cnc2[nH]1 [xanthine]
Na/K ATPase stimulatory activity of adenosine analogs and metabolites (Na/K ATPase): little or no Na/K ATPase stimulatory activity

Insulin
effect of hormones on Na/K ATPase activity (Na/K ATPase): had no effect on Na/K ATPase activity

Reference: patent US20050187181A1 (University of Maryland, priority 2004, published 2005)
